# Assay results: US8802713B2, “3-alkoxy-1-phenylpyrazole derivatives and pesticides” (Kumiai Chemical Industry Co., Ltd., priority 2007, dated 2014)
# Like-named read-outs stand apart in the source and are kept apart here.
# Key:
# diamondback moth = assay: Insecticidal test on diamondback moth; format: in vivo; settings: Plutella xylostella, 144 h
# Procedure: A wettable powder prepared in accordance with Formulation Example 2 was diluted with water to a concentration of an active ingredient of 500 ppm. Cabbage leaves were dipped in this solution and dried in air and then put in a plastic cup having a capacity of 60 mL. 10 second-instar larvae of diamondback moth were released in the cup and the cup was lidded. Then, the cup was placed in a thermostatic chamber at 25° C. for 6 days, and dead moths were counted for calculation of the mortality by Equation 2. The test was carried out by one series system.
# cotton bollworm = assay: Insecticidal test on cotton bollworm; format: in vivo; settings: Helicoverpa armigera, 144 h
# Procedure: A wettable powder prepared in accordance with Formulation Example 2 was diluted with water to a concentration of an active ingredient of 500 ppm. Cabbage leaves were dipped in this solution and dried in air and then put in a plastic cup having a capacity of 60 mL. Five hatched larvae of cotton bollworm were released in the cup, and the cup was lidded and placed in a thermostatic chamber at 25° C. for 6 days, and the number of dead larvae were assessed for calculation of the mortality by Equation 2. The test was carried out by two series system.
# two-spotted spider mites = assay: Miticidal test on two-spotted spider mites (seedling dip); format: in vivo, Tetranvchus urticae; settings: Glycine max, 312 h, read-out: protective value
# Procedure: A wettable powder prepared in accordance with Formulation Example 2 was diluted with water to a concentration of an active ingredient of 500 ppm. Soybean seedlings which had been inoculated with imago two-spotted spider mites were dipped in the solution and dried in air. The treated soybean seedlings were placed in a thermostatic chamber at 25° C. for 13 days, and the number of live mites were assessed for calculation of the protective value by Equation 1. The test was carried out by one series system.
# brown rice planthopper = assay: Insecticidal test on brown rice planthopper; format: in vivo; settings: 144 h
# Procedure: A wettable powder prepared in accordance with Formulation Example 2 was diluted with water to a concentration of an active ingredient of 500 ppm. Rice sprouts were dipped in this solution and put in a plastic cup having a capacity of 60 mL. Ten third-instar larvae of brown rice planthopper were released in the cup, the cup was lidded and placed in a thermostatic chamber at 25° C. for 6 days, and the number of dead larvae were counted for calculation of the mortality by Equation 2. The test was carried out by one series system.
# cotton aphid = assay: Insecticidal test on cotton aphid (seedling dip); format: in vivo; settings: Aphis gossypii, 72 h
# Procedure: A wettable powder prepared in accordance with Formulation Example 2 was diluted with water to a concentration of an active ingredient of 500 ppm. Cucumber seedlings which had been inoculated with larvae of cotton aphid were dipped in this solution and dried in air. The treated cucumber seedlings were placed in a thermostatic chamber at 25° C. for 3 days, and the live insects were counted for calculation of the mortality by Equation 2. The test was carried out by one series system.
# [1] = 500 ppm active ingredient, soybean seedlings with imago mites dipped, 25° C., 13 days
# [2] = 500 ppm active ingredient, cabbage leaves dipped, second-instar larvae, 25° C., 6 days, read-out: mortality
# [3] = 500 ppm active ingredient, cabbage leaves dipped, hatched larvae, 25° C., 6 days, read-out: mortality
# [4] = 500 ppm active ingredient, cucumber seedlings with larvae of cotton aphid dipped, 25° C., 3 days, read-out: mortality
melting point,SMILES,mortality at 500 ppm (diamondback moth; in Brassica oleracea),mortality at 500 ppm (cotton bollworm; in Brassica oleracea),pest or weed control at 500 ppm (two-spotted spider mites; [1]),mortality at 500 ppm (brown rice planthopper),mortality at 500 ppm (cotton aphid; in Cucumis sativus),mortality at 500 ppm (diamondback moth; [2]),mortality at 500 ppm (cotton bollworm; [3]),pest or weed control at 500 ppm (two-spotted spider mites),mortality at 500 ppm (cotton aphid; [4])
–,"Cc1cc(F)c(-n2nc(OC(F)(F)C(F)C(F)(F)F)cc2N)cc1SCC(F)(F)F (stereo not drawn) [1-9, 5-amino-1-{2-fluoro-4-methyl-5-(2,2,2-trifluoroethylthio)phenyl}-3-(1,1,2,3,3,3-hexafluoropropoxy)pyrazole]",≥ 90%,≥ 90%,≥ 90%,≥ 90%,≥ 90%,–,–,–,–
–,"COc1cc(OC(F)(F)C(F)OC(F)(F)F)nn1-c1cc([S+]([O-])CC(F)(F)F)c(C)cc1F (stereo not drawn) [1-795, 1-{2-fluoro-4-methyl-5-(2,2,2-trifluoroethylsulfinyl)phenyl}-5-methoxy-3-{1,1,2-trifluoro-2-(trifluoromethoxy)ethoxy}pyrazole]",≥ 90%,≥ 90%,≥ 90%,≥ 90%,≥ 90%,–,–,–,–
–,"C#CCNc1cc(OC(F)(F)C(F)OC(F)(F)C(F)(F)C(F)(F)F)nn1-c1cc(SCC(F)(F)F)c(C)cc1F (stereo not drawn) [1-357, 1-{2-fluoro-4-methyl-5-(2,2,2-trifluoroethylthio)phenyl}-5-(2-propynylamino)-3-{1,1,2-trifluoro-2-(heptafluoropropoxy)ethoxy}pyrazole]",–,–,–,≥ 90%,–,≥ 90%,≥ 90%,≥ 90%,≥ 90%
–,"CC(=O)Nc1cc(OC(F)(F)C(F)F)nn1-c1cc([S+]([O-])CC(F)(F)F)c(C)cc1F (stereo not drawn) [1-1368, 5-acetylamino-1-{2-fluoro-4-methyl-5-(2,2,2-trifluoroethylsulfinyl)phenyl}-3-(1,1,2,2-tetrafluoroethoxy)pyrazole]",≥ 90%,≥ 90%,≥ 90%,≥ 90%,≥ 90%,–,–,–,–
–,"CNc1cc(OC(F)(F)C(F)OC(F)(F)C(F)(F)C(F)(F)F)nn1-c1cc(SCC(F)(F)F)c(C)cc1F (stereo not drawn) [1-347, 1-{2-fluoro-4-methyl-5-(2,2,2-trifluoroethylthio)phenyl}-5-methylamino-3-{1,1,2-trifluoro-2-(heptafluoropropoxy)ethoxy}pyrazole]",–,–,–,≥ 90%,–,≥ 90%,≥ 90%,≥ 90%,≥ 90%
102 to 104 °C,"Cc1cc(F)c(-n2nc(OCC(F)(F)C(F)(F)F)cc2CC(N)=O)cc1SCC(F)(F)F [1-139, 1-{2-fluoro-4-methyl-5-(2,2,2-trifluoroethylthio)phenyl}-3-(2,2,3,3,3-pentafluoropropoxy)pyrazole-5-carboxyamide]",–,–,–,–,–,–,–,–,–
–,"CC(=O)Nc1cc(OCC(F)(F)C(F)(F)C(F)(F)C(F)(F)F)nn1-c1cc([S+]([O-])CC(F)(F)F)c(C)cc1F (stereo not drawn) [1-78, 5-acetylamino-1-{2-fluoro-4-methyl-5-(2,2,2-trifluoroethylsulfinyl)phenyl}-3-(2,2,3,3,4,4,5,5,5-nonafluoropentyloxy)pyrazole]",–,–,–,≥ 90%,–,≥ 90%,≥ 90%,≥ 90%,–
–,"CC(=O)Nc1cc(OC(F)(F)C(F)OC(F)(F)F)nn1-c1cc(SCC(F)(F)F)c(C)cc1F (stereo not drawn) [1-15, 5-acetylamino-1-{2-fluoro-4-methyl-5-(2,2,2-trifluoroethylthio)phenyl}-3-{1,1,2-trifluoro-2-(trifluoromethoxy)ethoxy}pyrazole]",≥ 90%,≥ 90%,≥ 90%,≥ 90%,≥ 90%,–,–,–,–
–,"C#CCNc1cc(OCC(F)(F)C(F)(F)F)nn1-c1cc(SCC(F)(F)F)c(C)cc1F [1-161, 1-{2-fluoro-4-methyl-5-(2,2,2-trifluoroethylthio)phenyl}-3-(2,2,3,3,3-pentafluoropropoxy)-5-(2-propynylamino)pyrazole]",≥ 90%,≥ 90%,≥ 90%,≥ 90%,≥ 90%,–,–,–,–
–,"CC(=O)Nc1cc(OCC(F)(F)C(F)(F)F)nn1-c1cc(SCC(F)(F)F)c(C)cc1F [1-17, 5-acetylamino-1-{2-fluoro-4-methyl-5-(2,2,2-trifluoroethylthio)phenyl}-3-(2,2,3,3,3-pentafluoropropoxy)pyrazole]",≥ 90%,≥ 90%,≥ 90%,≥ 90%,≥ 90%,–,–,–,–
–,"CC(=O)Nc1cc(OC(F)(F)C(F)OC(F)(F)F)nn1-c1cc([S+]([O-])CC(F)(F)F)c(C)cc1F (stereo not drawn) [1-16, 5-acetylamino-1-{2-fluoro-4-methyl-5-(2,2,2-trifluoroethylsulfinyl)phenyl}-3-{1,1,2-trifluoro-2-(trifluoromethoxy)ethoxy}pyrazole]",≥ 90%,≥ 90%,≥ 90%,–,≥ 90%,–,–,–,–
–,"Cc1cc(F)c(-n2nc(OCC(F)(F)C(F)(F)C(F)(F)F)cc2NC=O)cc1SCC(F)(F)F [1-1593, 1-{2-fluoro-4-methyl-5-(2,2,2-trifluoroethylthio)phenyl}-5-formylamino-3-(2,2,3,3,4,4,4-heptafluorobutoxy)pyrazole]",–,–,–,≥ 90%,–,≥ 90%,≥ 90%,≥ 90%,≥ 90%
57 to 58 °C,"Cc1cc(F)c(-n2cc(C#N)c(OC(F)(F)C(F)OC(F)(F)F)n2)cc1SCC(F)(F)F (stereo not drawn) [1-1587, 4-cyano-1-{2-fluoro-4-methyl-5-(2,2,2-trifluoroethylthio)phenyl}-3-{1,1,2-trifluoro-2-(trifluoromethoxy)ethoxy}pyrazole]",–,–,≥ 90%,–,–,–,–,–,–
–,"CNc1cc(OC(F)(F)C(F)C(F)(F)F)nn1-c1cc([S+]([O-])CC(F)(F)F)c(C)cc1F (stereo not drawn) [1-187, 1-{2-fluoro-4-methyl-5-(2,2,2-trifluoroethylsulfinyl)phenyl}-3-(1,1,2,3,3,3-hexafluoropropoxy)-5-methylaminopyrazole]",–,–,–,≥ 90%,–,≥ 90%,≥ 90%,–,≥ 90%
–,"Cc1cc(F)c(-n2nc(OCC(F)(F)C(F)(F)C(F)(F)F)cc2NC=O)cc1[S+]([O-])CC(F)(F)F (stereo not drawn) [1-1594, 1-{2-fluoro-4-methyl-5-(2,2,2-trifluoroethylsulfinyl)phenyl}-5-formylamino-3-(2,2,3,3,4,4,4-heptafluorobutoxy)pyrazole]",–,–,–,–,–,≥ 90%,≥ 90%,–,≥ 90%
81 to 84 °C,"CCOC(=O)c1cc(OCC(F)(F)C(F)(F)F)nn1-c1cc(SCC(F)(F)F)c(C)cc1F [1-143, ethyl 1-{2-fluoro-4-methyl-5-(2,2,2-trifluoroethylthio)phenyl}-3-(2,2,3,3,3-pentafluoropropoxy)pyrazole-5-carboxylate]",–,–,–,–,–,–,–,–,–
–,"CNc1cc(OC(F)(F)C(F)(F)C(F)(F)C(F)(F)C(F)(F)F)nn1-c1cc([S+]([O-])CC(F)(F)F)c(C)cc1F (stereo not drawn) [1-525, 1-{2-fluoro-4-methyl-5-(2,2,2-trifluoroethylsulfinyl)phenyl}-5-methylamino-3-(1,1,2,2,3,3,4,4,5,5,5-undecafluoropentyloxy)pyrazole]",–,–,–,≥ 90%,–,≥ 90%,≥ 90%,≥ 90%,–
–,"CNc1cc(OC(F)(F)C(F)(F)C(F)(F)C(F)(F)C(F)(F)F)nn1-c1cc(SCC(F)(F)F)c(C)cc1F [1-524, 1-{2-fluoro-4-methyl-5-(2,2,2-trifluoroethylthio)phenyl}-5-methylamino-3-(1,1,2,2,3,3,4,4,5,5,5-undecafluoropentyloxy)pyrazole]",–,–,–,≥ 90%,–,≥ 90%,≥ 90%,≥ 90%,–
